Cytotoxicity activity data for 34 compounds are collected here from patent US20230340012A1, “NATURAL AND SYNTHETIC COMPOUNDS FOR TREATING CANCER AND OTHER DISEASES” (PACIFIC ARROW LIMITED, priority 2009, published 2023).

For the data set, the system named is cancer cells. In words: MTT cytotoxic assay of esterification products (Cytotoxicity activity). The class given is cell-based, human. The following applies: MTT cytotoxic assay, isolated esterification products of E4A. An excerpt:
The peaks, fractions and compounds are selected according to the activities of times studies and the changes of peaks. Selecting the HPLC fractions for isolation is according to the cytotoxic activity of the reaction product obtained at a specific time. The compounds having strong to weak activities are selected and isolated. Selecting the HPLC fractions for isolation may be according to the cytotoxic activity of times studies and the change of peaks. The anti-cancer activities are the MTT studies of bone (U2OS), lung (H460), bladder (HTB-9), ovary (ES2), colon (HCT116), pancreas (Capan), ovary(OVCAR3), prostate (DU145), skin (SK-Mel-5), mouth (KB), kidney (A498), breast (MCF-7), liver (HepG2), brain (T98G), leukemia (K562), cervix (HeLa).
Esterification of compound (A), (B), (C), (D1), (D2), (E), (F), (G), (H1), (H2), E4A, E4A2Y, (P1), P(2), terpene, isoprene, triterpenes, hydroxylated triterpenes, with acyl halide, wherein the halide comprise chloride, bromide, fluoride and iodide, wherein the acyl halide comprise acyl chloride, wherein acyl chloride comprise tigloyl chloride, angeloyl chloride, acetyl chloride, crotonoyl chloride, 3,3-Dimethylacryloyl chloride, senecioyl chloride, cinnamoyl chloride, pentenoyl chloride, hexanoyl chloride, benzoyl chloride, ethylbutyryl chloride, propionyl chloride, 2-propenoyl chloride, isobutyryl chloride, butyryl chloride, (2E)-2-pentenoyl chloride, 4-Pentenoyl chloride, 5-hexenoyl chloride, heptanoyl chloride, octanoyl chloride, nonanoyl chloride, decanoyl chloride, Lauroyl chloride, myristoyl chloride, oleoyl chloride. The compounds vary in composition when the time or temperature of the reaction is changed. The peaks, fractions and compounds are selected according to the activities of times studies and the changes of peaks. The compounds having strong to weak activities are selected and isolated. The anti-cancer activities (Cytotoxic Assay) are the MTT studies of bone (U2OS), lung (H460), bladder(HTB-9), ovary (ES2), colon (HCT116), pancreas (Capan), ovary(OVCAR3), prostate (DU145), skin (SK-Mel-5), mouth (KB), kidney (A498), breast (MCF-7), liver (HepG2), brain (T98G), leukemia (K562), cervix (HeLa). The active esterification products are purified with HPLC. The reaction product of mixtures and individual compounds are tested with MTT Cytotoxic Assay. Details of method are in Experiment 3 of the present application. A second esterification of compound can be selected from the above experiment results to produce new active compounds. A partial esterification compound is selected from the above experiments to perform a second or repeated with a third esterification with different acyl chloride in order to produce new active compounds with the experiments in the present application.
Method: 40 mg of triterpene core (fraction IV) was dissolved in 1 ml pyridine in a 50 ml tube. Reaction is started by adding 0.2 ml of acyl chloride (Tigloyl chloride, angeloyl chloride, Acetyl chloride, Crotonoyl chloride, 3,3-Dimethylacryloyl chloride(senecioyl chloride), Cinnamoyl chloride, Pentenoyl chloride, Hexanoyl chloride, benzoyl chloride or Ethylbutyryl chloride). The mixture is stirred for 5 sec, 1 min, 2 min, 5 min, 10 min, 30 min, 1 hr, 2 hr, 18 hr, 2 days or 3 days at 0° C., 25° C. or 75° C. temperature. At the end of reaction, 5 ml of 2N HCl or 1 M NaHCO3 is added to the reaction mixture. The solution is then extracted 3 times with 10 ml of ethyl acetate which is then evaporated under vacuum and at 45C and lyophilization. The reaction product is dissolved in 80% acetonitrile - 0.005% Trifluoroacetic acid or DMSO; and was separated with HPLC. Selecting the HPLC fractions for isolation is according to the cytotoxic activity of the reaction product obtained at a specific reaction time. The active esterification products are purified with HPLC. The reaction product of mixtures and individual compounds are tested with MTT cytotoxic assay. Structures are determined with NMR. […]

Turning to `CC(C)=CC(=O)OCC1(C)C(O)CCC2(C)C1CCC1(C)C2CC=C2C3CC(C)(C)C(O)C(O)C3(CO)C(O)CC21C` (stereo not shown) [Compound B1], the Cytotoxicity activity result was “moderate”.

Turning to `CC(C)=CC(=O)OCC12C(O)CC3(C)C(=CCC4C5(C)CCC(O)C(C)(CO)C5CCC43C)C1CC(C)(C)C(O)C2O` (stereo not shown) [Compound B2], the Cytotoxicity activity entry was “moderate”.

Consider `CC(C)=CC(=O)OCC1(C)C(O)CCC2(C)C1CCC1(C)C2CC=C2C3CC(C)(C)C(O)C(O)C3(COC(=O)C=C(C)C)C(O)CC21C` (stereo not shown) [Compound B3], for which the Cytotoxicity activity entry was “strong”.

For `CC(C)=CC(=O)OCC1(C)C(O)CCC2(C)C1CCC1(C)C2CC=C2C3CC(C)(C)C(OC(=O)C=C(C)C)C(O)C3(COC(=O)C=C(C)C)C(O)CC21C` (stereo not shown) [Compound B4], the Cytotoxicity activity result is “moderate”.

As for `CC(C)=CC(=O)OCC1(C)C(O)CCC2(C)C1CCC1(C)C2CC=C2C3CC(C)(C)C(O)C(OC(=O)C=C(C)C)C3(COC(=O)C=C(C)C)C(O)CC21C` (stereo not shown) [Compound B5], the Cytotoxicity activity result is reported as “moderate”.

Regarding `CC(C)=CC(=O)OCC1(C)C(OC(=O)C=C(C)C)CCC2(C)C1CCC1(C)C2CC=C2C3CC(C)(C)C(O)C(O)C3(COC(=O)C=C(C)C)C(O)CC21C` (stereo not shown) [Compound B6], the Cytotoxicity activity result is “moderate”.

For the compound `CC(C)=CC(=O)OCC1(C)C(O)CCC2(C)C1CCC1(C)C2CC=C2C3CC(C)(C)C(O)C(O)C3(COC(=O)C=C(C)C)C(OC(=O)C=C(C)C)CC21C` (stereo not shown) [Compound B7], the Cytotoxicity activity entry was “moderate”.

On to `CC(C)=CC(=O)OCC1(C)C(O)CCC2(C)C1CCC1(C)C2CC=C2C3CC(C)(C)C(OC(=O)C=C(C)C)C(OC(=O)C=C(C)C)C3(COC(=O)C=C(C)C)C(O)CC21C` (stereo not shown) [Compound B8], for which the Cytotoxicity activity result is given as “weak”.

Take `CC(C)=CC(=O)OCC1(C)C(OC(=O)C=C(C)C)CCC2(C)C1CCC1(C)C2CC=C2C3CC(C)(C)C(O)C(OC(=O)C=C(C)C)C3(COC(=O)C=C(C)C)C(O)CC21C` (stereo not shown) [Compound B9]: the Cytotoxicity activity result is recorded as “weak”.

As for `CC(C)=CC(=O)OCC1(C)C(OC(=O)C=C(C)C)CCC2(C)C1CCC1(C)C2CC=C2C3CC(C)(C)C(O)C(O)C3(COC(=O)C=C(C)C)C(OC(=O)C=C(C)C)CC21C` (stereo not shown) [Compound B10], the Cytotoxicity activity result was “weak”.

Take `CC(C)=CC(=O)OCC1(C)C(OC(=O)C=C(C)C)CCC2(C)C1CCC1(C)C2CC=C2C3CC(C)(C)C(OC(=O)C=C(C)C)C(O)C3(COC(=O)C=C(C)C)C(O)CC21C` (stereo not shown) [Compound B11]: the Cytotoxicity activity result is reported as “weak”.

Turning to `CC(C)=CC(=O)OCC1(C)C(O)CCC2(C)C1CCC1(C)C2CC=C2C3CC(C)(C)C(O)C(OC(=O)C=C(C)C)C3(COC(=O)C=C(C)C)C(OC(=O)C=C(C)C)CC21C` (stereo not shown) [Compound B12], the Cytotoxicity activity entry is “weak”.

Take `CC(C)=CC(=O)OCC1(C)C(O)CCC2(C)C1CCC1(C)C2CC=C2C3CC(C)(C)C(OC(=O)C=C(C)C)C(O)C3(COC(=O)C=C(C)C)C(OC(=O)C=C(C)C)CC21C` (stereo not shown) [Compound B13]: the Cytotoxicity activity result was “weak”.

For `CC(C)=CC(=O)OCC1(C)C(OC(=O)C=C(C)C)CCC2(C)C1CCC1(C)C2CC=C2C3CC(C)(C)C(O)C(OC(=O)C=C(C)C)C3(COC(=O)C=C(C)C)C(O)CC21C` (stereo not shown) [Compound B14], the Cytotoxicity activity result is “weak”.

On to `CC(C)=CC(=O)OCC1(C)C(OC(=O)C=C(C)C)CCC2(C)C1CCC1(C)C2CC=C2C3CC(C)(C)C(OC(=O)C=C(C)C)C(OC(=O)C=C(C)C)C3(COC(=O)C=C(C)C)C(O)CC21C` (stereo not shown) [Compound B15], for which the Cytotoxicity activity entry was “weak”.

As for `CC(C)=CC(=O)OCC1(C)C(O)CCC2(C)C1CCC1(C)C2CC=C2C3CC(C)(C)C(OC(=O)C=C(C)C)C(OC(=O)C=C(C)C)C3(COC(=O)C=C(C)C)C(OC(=O)C=C(C)C)CC21C` (stereo not shown) [Compound B16], the Cytotoxicity activity entry is recorded as “weak”.

Turning to `CC(C)=CC(=O)OCC1(C)C(OC(=O)C=C(C)C)CCC2(C)C1CCC1(C)C2CC=C2C3CC(C)(C)C(OC(=O)C=C(C)C)C(O)C3(COC(=O)C=C(C)C)C(OC(=O)C=C(C)C)CC21C` (stereo not shown) [Compound B17], the Cytotoxicity activity entry is reported as “weak”.

As for `CC(C)=CC(=O)OCC1(C)C(OC(=O)C=C(C)C)CCC2(C)C1CCC1(C)C2CC=C2C3CC(C)(C)C(O)C(OC(=O)C=C(C)C)C3(COC(=O)C=C(C)C)C(OC(=O)C=C(C)C)CC21C` (stereo not shown) [Compound B18], the Cytotoxicity activity result is recorded as “weak”.

Take `CC(C)=CC(=O)OCC1(C)C(OC(=O)C=C(C)C)CCC2(C)C1CCC1(C)C2CC=C2C3CC(C)(C)C(OC(=O)C=C(C)C)C(OC(=O)C=C(C)C)C3(COC(=O)C=C(C)C)C(OC(=O)C=C(C)C)CC21C` (stereo not shown) [Compound B19]: the Cytotoxicity activity entry was “none”.

In the case of `CC(C)=CC(=O)OCC12C(O)CC3(C)C(=CCC4C5(C)CCC(O)C(C)(CO)C5CCC43C)C1CC(C)(C)C(OC(=O)C=C(C)C)C2OC(=O)C=C(C)C` (stereo not shown) [Compound B20], the Cytotoxicity activity result was “moderate”.

As for `CC(C)=CC(=O)OCC1(C)C(O)CCC2(C)C1CCC1(C)C2CC=C2C3CC(C)(C)C(OC(=O)C=C(C)C)C(OC(=O)C=C(C)C)C3(CO)C(O)CC21C` (stereo not shown) [Compound B21], the Cytotoxicity activity entry is “moderate”.

In the case of `CC(C)=CC(=O)OC1C(OC(=O)C=C(C)C)C2(CO)C(OC(=O)C=C(C)C)CC3(C)C(=CCC4C5(C)CCC(O)C(C)(CO)C5CCC43C)C2CC1(C)C` (stereo not shown) [Compound B22], the Cytotoxicity activity entry is reported as “moderate”.

Consider `CC(C)=CC(=O)OC1C(OC(=O)C=C(C)C)C2(CO)C(O)CC3(C)C(=CCC4C5(C)CCC(OC(=O)C=C(C)C)C(C)(CO)C5CCC43C)C2CC1(C)C` (stereo not shown) [Compound B23], for which the Cytotoxicity activity entry is on record as “moderate”.

As for `CC(C)=CC(=O)OC1C(OC(=O)C=C(C)C)C2(CO)C(O)CC3(C)C(=CCC4C5(C)CCC(O)C(C)(CO)C5CCC43C)C2CC1(C)C` (stereo not shown) [Compound B24], the Cytotoxicity activity result is recorded as “moderate”.

As to `CC(C)=CC(=O)OCC12C(O)CC3(C)C(=CCC4C5(C)CCC(O)C(C)(CO)C5CCC43C)C1CC(C)(C)C(OC(=O)C=C(C)C)C2O` (stereo not shown) [Compound B25], the Cytotoxicity activity result was “moderate”.

With `CC(C)=CC(=O)OCC12C(O)CC3(C)C(=CCC4C5(C)CCC(O)C(C)(CO)C5CCC43C)C1CC(C)(C)C(O)C2OC(=O)C=C(C)C` (stereo not shown) [Compound B26], the Cytotoxicity activity entry is recorded as “moderate”.

On to `CC(C)=CC(=O)OCC12C(O)CC3(C)C(=CCC4C5(C)CCC(OC(=O)C=C(C)C)C(C)(CO)C5CCC43C)C1CC(C)(C)C(O)C2O` (stereo not shown) [Compound B27], for which the Cytotoxicity activity result is “moderate”.

In the case of `CC(C)=CC(=O)OCC12C(OC(=O)C=C(C)C)CC3(C)C(=CCC4C5(C)CCC(O)C(C)(CO)C5CCC43C)C1CC(C)(C)C(O)C2O` (stereo not shown) [Compound B28], the Cytotoxicity activity entry is given as “moderate”.

For the compound `CC(C)=CC(=O)OCC1(C)C(O)CCC2(C)C1CCC1(C)C2CC=C2C3CC(C)(C)C(OC(=O)C=C(C)C)C(O)C3(CO)C(O)CC21C` (stereo not shown) [Compound B29], the Cytotoxicity activity entry is “moderate”.

For the compound `CC(C)=CC(=O)OCC1(C)C(O)CCC2(C)C1CCC1(C)C2CC=C2C3CC(C)(C)C(O)C(OC(=O)C=C(C)C)C3(CO)C(O)CC21C` (stereo not shown) [Compound B30], the Cytotoxicity activity result is listed as “moderate”.

As for `CC(C)=CC(=O)OCC1(C)C(OC(=O)C=C(C)C)CCC2(C)C1CCC1(C)C2CC=C2C3CC(C)(C)C(O)C(O)C3(CO)C(O)CC21C` (stereo not shown) [Compound B31], the Cytotoxicity activity entry is “moderate”.

As for `CC(C)=CC(=O)OCC1(C)C(O)CCC2(C)C1CCC1(C)C2CC=C2C3CC(C)(C)C(O)C(O)C3(CO)C(OC(=O)C=C(C)C)CC21C` (stereo not shown) [Compound B32], the Cytotoxicity activity result is “moderate”.

Regarding `C=CCCC(=O)OCC1(C)C(O)CCC2(C)C1CCC1(C)C2CC=C2C3CC(C)(C)C(O)C(O)C3(CO)C(O)CC21C` (stereo not shown) [Compound C1], the Cytotoxicity activity result was “moderate”.

Take `C=CCCC(=O)OCC12C(O)CC3(C)C(=CCC4C5(C)CCC(O)C(C)(CO)C5CCC43C)C1CC(C)(C)C(O)C2O` (stereo not shown) [Compound C2]: the Cytotoxicity activity entry is given as “moderate”.
